Molecular target: T1, EI^Ntr (Escherichia coli, UniProt P37177)
T1 sequence (P37177 1-748): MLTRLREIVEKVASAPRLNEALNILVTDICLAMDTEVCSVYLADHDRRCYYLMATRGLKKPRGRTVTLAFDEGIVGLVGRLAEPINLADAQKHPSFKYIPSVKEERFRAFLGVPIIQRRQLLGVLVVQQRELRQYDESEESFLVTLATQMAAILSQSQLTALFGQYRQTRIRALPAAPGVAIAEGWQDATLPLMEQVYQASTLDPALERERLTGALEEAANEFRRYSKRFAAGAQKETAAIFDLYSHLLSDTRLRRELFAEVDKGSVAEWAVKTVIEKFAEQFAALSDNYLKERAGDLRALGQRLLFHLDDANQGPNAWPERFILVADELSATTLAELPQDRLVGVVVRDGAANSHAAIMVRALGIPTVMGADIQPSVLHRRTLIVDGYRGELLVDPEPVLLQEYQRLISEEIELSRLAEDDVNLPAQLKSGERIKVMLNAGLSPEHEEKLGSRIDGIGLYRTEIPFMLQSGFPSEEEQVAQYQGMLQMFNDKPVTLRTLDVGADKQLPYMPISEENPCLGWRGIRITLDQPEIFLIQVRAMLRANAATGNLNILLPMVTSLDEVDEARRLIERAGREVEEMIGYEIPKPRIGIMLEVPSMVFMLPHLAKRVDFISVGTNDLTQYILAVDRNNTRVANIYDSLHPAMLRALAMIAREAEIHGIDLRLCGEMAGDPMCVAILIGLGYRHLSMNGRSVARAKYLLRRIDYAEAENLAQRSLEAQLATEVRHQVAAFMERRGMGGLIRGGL
Assay: intrinsic tryptophan fluorescence quenching
Type: binding

| Kd | SMILES |
| --- | --- |
| 700 µM | NC(=O)CC[C@H](N)C(=O)O [glutamine] |
| 3300 µM | O=C(O)CCC(=O)C(=O)O [α-ketoglutarate] |
